The supplement of paper PMC10307832

Columns and labels:
Assay in all cases: relative viability (nuclei count vs DMSO), 5 days (fraction); higher = more cells survive
201T = tested on: 201T
Outline: (§1)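 Lung cancer cell lines in 1536-well plates got either a single drug or a fixed anchor-drug dose together with five library-drug doses (not always all listed) in √10 steps, by pin tool, on the day after seeding. Nuclei were counted after 5 days, and relative viability is the treated-to-vehicle ratio of nuclei counts. Values are medians of duplicate plates.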

ABC-1 = tested on: ABC-1
Outline: as §1

CAL-12T = tested on: CAL-12T
Outline: as §1

COR-L23 = tested on: COR-L23
Outline: as §1

ChaGo-K-1 = tested on: ChaGo-K-1
Outline: as §1

HCC-44 = tested on: HCC-44
Outline: as §1

HOP-62 = tested on: HOP-62
Outline: as §1

LC-2-ad = tested on: LC-2-ad
Outline: as §1

LCLC-103H = tested on: LCLC-103H
Outline: as §1

NCI-H1355 = tested on: NCI-H1355
Outline: as §1

NCI-H1395 = tested on: NCI-H1395
Outline: as §1

NCI-H1651 = tested on: NCI-H1651
Outline: as §1

NCI-H1666 = tested on: NCI-H1666
Outline: as §1

`CCCCCCCCCCCC1=C(O)C(=O)C=C(O)C1=O` [Embelin] + N=C(N)NC(=N)NCCc1ccccc1 [Phenformin] (partner 250 µM) showed a relative viability (201T; first compound 0.08 µM) of 0.432, a relative viability (201T; first compound 0.8 µM) of 0.49 and a relative viability (201T; first compound 2.53 µM) of 0.482. For the same compound, the relative viability (201T; first compound 8 µM) was 0.385, the relative viability (ABC-1; first compound 0.08 µM) was 0.251 and the relative viability (ABC-1; first compound 0.8 µM) was 0.237. It also gave a relative viability (ABC-1; first compound 2.53 µM) of 0.256, a relative viability (ABC-1; first compound 8 µM) of 0.194 and a relative viability (CAL-12T; first compound 0.08 µM) of 0.578. For the same compound, the relative viability (CAL-12T; first compound 0.8 µM) was 0.687, the relative viability (CAL-12T; first compound 2.53 µM) was 0.554 and the relative viability (CAL-12T; first compound 8 µM) was 0.543. For the same compound, the relative viability (COR-L23; first compound 0.08 µM) was 0.448, the relative viability (COR-L23; first compound 0.8 µM) was 0.542 and the relative viability (COR-L23; first compound 2.53 µM) was 0.426. It also gave a relative viability (COR-L23; first compound 8 µM) of 0.462, a relative viability (ChaGo-K-1; first compound 0.08 µM) of 0.547 and a relative viability (ChaGo-K-1; first compound 0.8 µM) of 0.503. The relative viability (ChaGo-K-1; first compound 2.53 µM) was 0.586, the relative viability (ChaGo-K-1; first compound 8 µM) was 0.482 and the relative viability (HCC-44; first compound 0.08 µM) was 0.175. For the same compound, the relative viability (HCC-44; first compound 0.8 µM) was 0.252, the relative viability (HCC-44; first compound 2.53 µM) was 0.0967 and the relative viability (HCC-44; first compound 8 µM) was 0.0958. For the same compound, the relative viability (HOP-62; first compound 0.08 µM) was 0.649, the relative viability (HOP-62; first compound 0.8 µM) was 0.701 and the relative viability (HOP-62; first compound 2.53 µM) was 0.777. The relative viability (HOP-62; first compound 8 µM) was 0.719, the relative viability (LC-2-ad; first compound 0.08 µM) was 0.608 and the relative viability (LC-2-ad; first compound 0.8 µM) was 0.772. The relative viability (LC-2-ad; first compound 2.53 µM) was 0.617, the relative viability (LC-2-ad; first compound 8 µM) was 0.367 and the relative viability (LCLC-103H; first compound 0.08 µM) was 0.337. It also gave a relative viability (LCLC-103H; first compound 0.8 µM) of 0.343, a relative viability (LCLC-103H; first compound 2.53 µM) of 0.367 and a relative viability (LCLC-103H; first compound 8 µM) of 0.286. It also gave a relative viability (NCI-H1355; first compound 0.08 µM) of 0.482, a relative viability (NCI-H1355; first compound 0.8 µM) of 0.535 and a relative viability (NCI-H1355; first compound 2.53 µM) of 0.442. For the same compound, the relative viability (NCI-H1355; first compound 8 µM) was 0.392, the relative viability (NCI-H1395; first compound 0.08 µM) was 0.46 and the relative viability (NCI-H1395; first compound 0.8 µM) was 0.495. For the same compound, the relative viability (NCI-H1395; first compound 2.53 µM) was 0.474, the relative viability (NCI-H1395; first compound 8 µM) was 0.395 and the relative viability (NCI-H1651; first compound 0.08 µM) was 0.346. The relative viability (NCI-H1651; first compound 0.8 µM) was 0.412, the relative viability (NCI-H1651; first compound 2.53 µM) was 0.361 and the relative viability (NCI-H1651; first compound 8 µM) was 0.321. For the same compound, the relative viability (NCI-H1666; first compound 0.08 µM) was 0.57 and the relative viability (NCI-H1666; first compound 0.8 µM) was 0.631.
